Laboratory results reported in PubChem BioAssay (NCI).
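Following 48 hours of exposure in 96-well plates, responses at five concentrations were used to interpolate endpoints linearly. TGI: total growth inhibition.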

Experiments:
Experiment in all cases: NCI tumour cell line growth inhibition, 48 h
[1] = test system: UACC-257 melanoma
[2] = test system: MDA-MB-231 breast
[3] = test system: HCT-15 colon
[4] = test system: MOLT-4 leukemia
[5] = test system: HCC-2998 colon
[6] = test system: MALME-3M melanoma
[7] = test system: HCT-116 colon
[8] = test system: SF-295 CNS
[9] = test system: SN12C renal
[10] = test system: NCI-H460 lung
[11] = test system: SF-268 CNS
[12] = test system: LOX IMVI melanoma
[13] = test system: OVCAR-4 ovarian
[14] = test system: HOP-92 NSCLC
[15] = test system: MDA-MB-435
[16] = test system: OVCAR-5 ovarian
[17] = test system: SNB-19 CNS
[18] = test system: K-562 leukemia
[19] = test system: HOP-62 NSCLC
[20] = test system: OVCAR-3 ovarian
[21] = test system: SW-620 colon
[22] = test system: SK-MEL-5 melanoma
[23] = test system: RXF 393 renal
[24] = test system: M14 melanoma
[25] = test system: DU-145 prostate
[26] = test system: T-47D breast
[27] = test system: A549 NSCLC
[28] = test system: NCI/ADR-RES ovarian
[29] = test system: U251 CNS
[30] = test system: NCI-H226 lung
[31] = test system: KM12 colon
[32] = test system: TK-10 renal
[33] = test system: IGROV1 ovarian
[34] = test system: SK-MEL-2 melanoma
[35] = test system: SF-539 CNS
[36] = test system: OVCAR-8 ovarian
[37] = test system: SK-OV-3 ovarian
[38] = test system: EKVX NSCLC
[39] = test system: UO-31 renal
[40] = test system: 786-0 renal
[41] = test system: MDA-N
[42] = test system: HS 578T breast
[43] = test system: SNB-75 CNS
[44] = test system: SK-MEL-28 melanoma
[45] = test system: CCRF-CEM leukemia
[46] = test system: UACC-62 melanoma
[47] = test system: COLO 205 colon
[48] = test system: NCI-H522 lung
[49] = test system: HT29 colon
[50] = test system: A498 renal
[51] = test system: NCI-H23 lung
[52] = test system: ACHN renal
[53] = test system: RPMI-8226 leukemia
[54] = test system: HL-60(TB) leukemia
[55] = test system: MCF7 breast
[56] = test system: CAKI-1 renal
[57] = test system: SR leukemia
[58] = test system: PC-3 prostate

With `CC(C)CCc1n[nH]c(=O)n1/N=C\c1ccccc1` the TGI [1] was greater than 100 µM, the TGI [2] was greater than 100 µM and the TGI [3] was greater than 100 µM. It also gave a TGI [4] greater than 100 µM, a TGI [5] greater than 100 µM and a TGI [6] greater than 100 µM. It also gave a TGI [7] greater than 100 µM, a TGI [8] greater than 100 µM and a TGI [9] greater than 100 µM. The TGI [10] was greater than 100 µM, the TGI [11] was greater than 100 µM and the TGI [12] was greater than 100 µM. For the same compound, the TGI [13] was greater than 100 µM, the TGI [14] was greater than 100 µM and the TGI [15] was greater than 100 µM. It also gave a TGI [16] greater than 100 µM, a TGI [17] greater than 100 µM and a TGI [18] greater than 100 µM. The TGI [19] was greater than 100 µM, the TGI [20] was greater than 100 µM and the TGI [21] was greater than 100 µM. It also gave a TGI [22] greater than 100 µM, a TGI [23] greater than 100 µM and a TGI [24] greater than 100 µM. For the same compound, the TGI [25] was greater than 100 µM, the TGI [26] was greater than 100 µM and the TGI [27] was greater than 100 µM. It also gave a TGI [28] greater than 100 µM, a TGI [29] greater than 100 µM and a TGI [30] greater than 100 µM. For the same compound, the TGI [31] was greater than 100 µM, the TGI [32] was greater than 100 µM and the TGI [33] was greater than 100 µM. The TGI [34] was greater than 100 µM, the TGI [35] was greater than 100 µM and the TGI [36] was greater than 100 µM. The TGI [37] was greater than 100 µM, the TGI [38] was greater than 100 µM and the TGI [39] was 86.1 µM. The TGI [40] was greater than 100 µM, the TGI [41] was greater than 100 µM and the TGI [42] was greater than 100 µM. The TGI [43] was greater than 100 µM, the TGI [44] was greater than 100 µM and the TGI [45] was greater than 100 µM. It also gave a TGI [46] greater than 100 µM, a TGI [47] greater than 100 µM and a TGI [48] greater than 100 µM. For the same compound, the TGI [49] was greater than 100 µM, the TGI [50] was greater than 100 µM and the TGI [51] was greater than 100 µM. For the same compound, the TGI [52] was greater than 100 µM.
Work on `CCN(CC)C(=S)N=Nc1c(O)[nH]c2ccccc12` yielded a TGI [1] of 12.3 µM, a TGI [2] of 8.02 µM and a TGI [3] of 19.6 µM. It also gave a TGI [4] of 2.93 µM, a TGI [6] of 10.4 µM and a TGI [7] of 2.84 µM. For the same compound, the TGI [8] was 11.5 µM, the TGI [9] was 14.2 µM and the TGI [10] was 3.08 µM. The TGI [11] was greater than 100 µM, the TGI [12] was 13.4 µM and the TGI [13] was 11.9 µM. For the same compound, the TGI [14] was 8.52 µM, the TGI [15] was 18.8 µM and the TGI [16] was 25.1 µM. For the same compound, the TGI [17] was 16 µM, the TGI [18] was 5.31 µM and the TGI [19] was 12.6 µM. For the same compound, the TGI [20] was 2.12 µM, the TGI [21] was 19.7 µM and the TGI [53] was 4.07 µM. It also gave a TGI [22] of 2.41 µM, a TGI [23] of 7.15 µM and a TGI [54] of 3.7 µM. The TGI [55] was 2.37 µM, the TGI [24] was 2.94 µM and the TGI [25] was greater than 100 µM. For the same compound, the TGI [27] was 11.9 µM, the TGI [28] was 0.759 µM and the TGI [29] was 13 µM. For the same compound, the TGI [30] was 8.2 µM, the TGI [31] was 10.5 µM and the TGI [32] was 5.07 µM. The TGI [33] was 2.42 µM, the TGI [56] was 5.98 µM and the TGI [34] was 23.8 µM. The TGI [35] was 2.4 µM, the TGI [36] was 13 µM and the TGI [37] was 12.6 µM. The TGI [38] was 11.5 µM, the TGI [40] was 11.4 µM and the TGI [41] was 16.5 µM. It also gave a TGI [42] of 69.5 µM, a TGI [43] of 11.2 µM and a TGI [44] greater than 100 µM. It also gave a TGI [45] of 5.75 µM, a TGI [46] of 6.38 µM and a TGI [47] of 11.6 µM. The TGI [48] was 14.4 µM, the TGI [49] was 14.8 µM and the TGI [57] was 4.91 µM. The TGI [58] was 13.9 µM, the TGI [50] was 3.64 µM and the TGI [51] was 14.6 µM. For the same compound, the TGI [52] was 10.1 µM.
